Measured values taken from US20130142868A1 (priority 2010, published 2013).
Read-outs that look alike come from different tables or passages of the source.

How the values were obtained:
[1] = system: A549 human lung cancer cells; test: Alamar Blue cell viability assay, A549; format: cell-based; conditions: 72 h, 3 days incubation
Experimental: HUVEC, LLC-PK1, and A549 lung cancer cells were purchased from ATCC. LLC-PK1 cells were cultured in DMEM supplemented with 10% FBS and antibiotics (100 U/mL penicillin G and 0.1 mg/mL streptomycin). HUVEC cells were cultured in F12-K media supplemented with 100 ug/ml endothelial cell growth supplement (BD Biosciences, Franklin Lakes, N.J.), 10% FBS, and antibiotics. A549 human lung cancer cells were cultured in F12-K media with 10% FBS and antibiotics. All cells were grown at 37° C. in a 5% CO2/95% air humidified atmosphere.
Cell viability experiments were performed using the Alamar Blue dye reduction assay (Invitrogen, Carlsbad, Calif.). The experimental cell lines were plated at 1.0×10^4 cells/well in 96-well plates in recommended media and allowed to adhere overnight. The next day, cells were incubated with liposomes or free CCNU, with drug concentrations from 2.5 to 100 μM. Cells were also incubated with empty RGD-expressed and non-targeted liposomes. The control cells were only incubated in the recommended media. All experiments were performed in quadruplicate. Incubations were allowed to carry out for 3 days. […] Next, the wells were analyzed with a fluorescence plate reader with absorption and emission of 485/535 nm. All cell viability results are expressed as a percentage of viable cells compared to control cells.

[2] = in vivo; cited from earlier work
[3] = rat, in vivo
rats = conditions: rat, in vivo

O=NN(CCCl)C(=O)NC1CCCCC1 [Free Drug, 1-(2-chloroethyl)-3-cyclohexyl-1-nitroso-urea]
IC50 ([1]; after aerosolization, read-out: IC50 values, post-aerosolization): 70.5 ± 2.97 µM | IC50 ([1]; before aerosolization, read-out: IC50 values, pre-aerosolization): 68.7 ± 2.48 µM

OC[C@@H](O)[C@@H](O)[C@H](O)[C@H](O)CO [mannitol]
half life [2]: 1.67 h | concentration at olfactory bulbs ([3]; Sprague-Dawley, 30 min): about 2 nmol/g | concentration in the brain's cortex, brain stem and spine ([3]; Sprague-Dawley, 30 min): 0.2 to 0.4 nmol/g | cortex concentration, increase POD compared to IV ([3]; Sprague-Dawley, 30 min): 8.69 fold | cortex concentration, increase POD compared to nose drops ([3]; Sprague-Dawley, 30 min): 11.6 fold | olfactory bulb concentration, increase POD compared to IV ([3]; Sprague-Dawley, 30 min): 53.1 fold | olfactory bulb concentration, increase POD compared to nose drops ([3]; Sprague-Dawley, 30 min): 25.6 fold | olfactory bulb concentration, increase POD compared to IV ([3]; Sprague-Dawley, 150 min): 40.0 fold | olfactory bulb concentration, increase POD compared to nose drops ([3]; Sprague-Dawley, 150 min): 22.1 fold | concentration in the brain's cortex, brain stem and spine ([3]; Sprague-Dawley, iv, 30 min): less than 0.02 nmol/g | blood normalized olfactory bulb concentration, POD compared to nose drops ([3]; 30 min): 18.6 fold | brain-to-blood ratio (average of all brain tissues), increase POD compared to nose drops ([3]; 30 min): 3.4 fold

CN1CC[C@]23c4c5ccc(O)c4O[C@H]2[C@@H](O)C=C[C@H]3[C@H]1C5 [morphine]
DTP % after POD administration (rats): 38-55% | DTP % after nose drops, depending on the dose (rats): 0-10%

Cc1c(O)cccc1C(=O)N[C@@H](CSc1ccccc1)[C@H](O)CN1C[C@H]2CCCC[C@H]2C[C@H]1C(=O)NC(C)(C)C [nelfinavir]
blood concentration, nose drop administration relative to POD administration ([3]; Sprague-Dawley, 30 min): 3.2 times higher | cortex concentration, increase POD compared to nose drops ([3]; Sprague-Dawley, 30 min): 4.05 fold | olfactory bulb concentration, increase POD compared to nose drops ([3]; Sprague-Dawley, 30 min): 1.91 fold | blood normalized olfactory bulb concentration, POD compared to nose drops ([3]; 30 min): 3.6 fold | brain-to-blood ratio (average of all brain tissues), increase POD compared to nose drops ([3]; 30 min): 2.1 fold | cortex concentration, increase POD compared to nose drops ([3]; 30 min): 4.0 fold | olfactory bulb concentration, increase POD compared to nose drops ([3]; 30 min): 1.4 fold
